Each structure is given as a SMILES string. pEC50, pKd: −log10 of the molar value.

What is called pEC50 is the EC50 on a negative log10 scale, so that one unit is a factor of ten. What is called pKd is the negative decadic logarithm of the Kd, by convention in mol/L.

Assay [1] deals with HCT-116. Description: Reversal of 5-FU resistance against 5-FU resistant DPD expressed human HCT-116 cells assessed as reduction in cell viability incubated for 48 hrs in presence of 5-FU by MTT assay. The format is functional, cell-based. To be noted: HCT-116, 48 h.
In assay [2] the target is T1, Sphingosine 1-phosphate receptor 2 (Homo sapiens, UniProt O95136). Description: Binding affinity to S1PR2 (unknown origin) by SPR assay.
T1 sequence (O95136 whole entry): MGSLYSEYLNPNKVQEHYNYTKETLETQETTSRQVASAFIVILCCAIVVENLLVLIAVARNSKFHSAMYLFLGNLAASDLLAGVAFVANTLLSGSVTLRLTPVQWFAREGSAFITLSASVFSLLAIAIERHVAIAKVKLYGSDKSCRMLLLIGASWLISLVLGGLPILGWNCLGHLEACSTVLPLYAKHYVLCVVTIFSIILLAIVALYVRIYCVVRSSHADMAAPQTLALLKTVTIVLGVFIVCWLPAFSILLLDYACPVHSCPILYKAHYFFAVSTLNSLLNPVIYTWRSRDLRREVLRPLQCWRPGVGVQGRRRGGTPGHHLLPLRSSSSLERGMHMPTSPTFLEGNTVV
Assay [3] relates to SW620/5-FU. As to the kind of experiment: Reversal of 5-FU resistance against human SW620/5-FU cells assessed as reduction in cell viability incubated for 48 hrs in presence of 5-FU by MTT assay. The format is functional, cell-based.
Assay [4] concerns HCT-116. Description: Antitumor activity against DPD expressed human HCT-116 cells xenografted in SPF nude mouse assessed as tumor growth inhibition at 15 mg/kg, iv QD for 20 days and measured every 4 days. Format: functional. The following applies: HCT-116, 480 h, time 20 day, read-out: TGI. In general terms: A xenograft is tissue or cells of one species grown in another, often human tumour cells in immunodeficient mice.

Assay [5] concerns HCT-116. Description: Antiproliferative activity against 5-FU resistant DPD expressed human HCT-116 cells assessed as reduction in cell viability incubated for 48 hrs by MTT assay. The following applies: HCT-116, 48 h. Format: functional, cell-based.
Assay [6] relates to SW620/5-FU. As to the kind of experiment: Antitumor activity against human SW620/5-FU cells xenografted in SPF nude mouse assessed as tumor growth inhibition at 15 mg/kg, iv QD for 21 days and measured every 4 days. The format is functional. The following applies: 504 h, time 21 day, read-out: TGI.
For assay [7], the system named is SW620/5-FU. As to the kind of experiment: Antitumor activity against human SW620/5-FU cells xenografted in SPF nude mouse assessed as reduction in tumor weight at 15 mg/kg, iv QD for 21 days. Format: functional. The arrangement: scale not given: the % may be the effect or the level left. The following applies: time 21 day.
Assay [8] relates to SW620/5-FU. As to the kind of experiment: Antiproliferative activity against human SW620/5-FU cells assessed as reduction in cell viability incubated for 48 hrs by MTT assay. Format: functional, cell-based. A general note: Formazan colour is commonly taken as a measure of viable cells.
For assay [9], the target named is T1, Sphingosine 1-phosphate receptor 2. As to the kind of experiment: Antagonist activity at S1PR2 in human SW620/5-FU cells assessed as reduction of DPD-catalyzed 5-FU degradation by measuring intracellular 5-FU level at 20 uM measured after 24 hrs by HPLC-UV analysis. To be noted: filed as antagonist. The format is functional, cell-based.

Consider `Cn1ncc2c(-c3ccc(F)cc3)cc(NNC(=O)Nc3cc(Cl)cc(Cl)c3)nc21`, for which the pEC50 in the assay with HCT-116 [1] was 4.41; in the assay with SW620/5-FU [3] it was 4.27. For the same molecule, the pKd in [2] is 5.30.
For `Cc1cc(NNC(=O)Nc2cc(Cl)nc(Cl)c2)nc2c1c(C)nn2C` the same measures were less than 4.00, less than 4.00 and 4.96.
The corresponding values for `CCCc1cc(NNC(=O)Nc2cc(Cl)nc(Cl)c2)nc2c1c(C)nn2C` are 4.14, 4.39 and 5.63.
On to `CCCCOc1cc(NC(=O)NNc2cc(-c3ccc(OC)cc3)c3cnn(C)c3n2)cc(Cl)n1`, for which the pEC50 in the assay with HCT-116 [1] was 4.44; in the assay on SW620/5-FU [3] it was 4.41. Further, in assay [2], the pKd is 5.38.
On to `O=c1[nH]cc(F)c(=O)[nH]1` [FLUOROURACIL], for which the inhibition in vivo at 15 mg/kg is 20.3% with HCT-116 [4] and 21.2% with SW620/5-FU [6]. In addition, the pEC50 with HCT-116 [5] and with SW620/5-FU [8] was less than 3.00 throughout. Also, in the assay with SW620/5-FU [7], the Activity worked out at 27.23%.
Regarding `CCN(CC)c1cc(NC(=O)NNc2cc(-c3ccc(F)cc3)c3cnn(C)c3n2)cc(Cl)n1`, the pEC50 was 4.53 in the assay with HCT-116 [1] and 4.43 with SW620/5-FU [3]. In assay [2], this molecule showed a pKd of 5.50.
As for `COc1ccc(-c2cc(NNC(=O)Nc3cc(Cl)nc(OC)c3)nc3c2cnn3C)cc1`, the pEC50 in the assay with HCT-116 [1] was 4.27; in the assay on SW620/5-FU [3] it was 4.31. In assay [2], this molecule gave a pKd of 5.70.
The corresponding values for `CCCOc1cc(NC(=O)NNc2cc(-c3ccc(OC)cc3)c3cnn(C)c3n2)cc(Cl)n1` are 4.48, 4.43 and 5.50.
For `Cc1nn(C)c2nc(NNC(=O)Nc3cc(Cl)nc(Cl)c3)cc(C3CCCCC3)c12` the same measures were 4.42, 4.66 and 5.70.
In the case of `CC(C)c1cc(NNC(=O)Nc2cc(Cl)nc(Cl)c2)nc2c1cnn2C`, the values for the pEC50 in the assay on HCT-116 [1] and in the assay with SW620/5-FU [3] were 4.77 and 4.30, respectively. This molecule also showed a pKd in assay [2] of 6.11.
For `CCCc1cc(NNC(=O)Nc2cc(Cl)nc(Cl)c2)nc2c1cnn2C` the same measures were 4.12, 4.41 and 5.85.
The corresponding values for `COc1cc(NC(=O)NNc2cc(-c3ccc(F)cc3)c3cnn(C)c3n2)cc(Cl)n1` are 4.12, 4.62 and 5.78.
The corresponding values for `Cc1nn(C)c2nc(NNC(=O)Nc3cc(Cl)nc(Cl)c3)cc(-c3ccco3)c12` are 4.16, less than 4.00 and 5.19.
Turning to `CC(C)c1cc(NNC(=O)Nc2cc(Cl)nc(Cl)c2)nc2c1c(C(F)(F)F)nn2C`, the pEC50 with HCT-116 [1] was 4.57; with SW620/5-FU [3], 4.72. The molecule further showed a pKd in assay [2] of 5.90.
The corresponding values for `Cc1nn(C)c2nc(NNC(=O)Nc3cc(Cl)nc(Cl)c3)cc(-c3ccc(F)cc3)c12` are 4.60, 4.76 and 6.01.
For `COc1cc(NC(=O)NNc2cc(-c3ccccc3)c3cnn(C)c3n2)cc(Cl)n1` the same measures were 4.51, 4.54 and 5.44.
`CCCc1cc(NNC(=O)Nc2cc(Cl)nc(Cl)c2)nc2c1c(C(F)(F)F)nn2C`: the pEC50 was 4.42 in the assay with HCT-116 [1] and 4.93 in the assay on SW620/5-FU [3]. The molecule also gave a pKd in [2] of 6.05.
For `COc1ccc(-c2cc(NNC(=O)Nc3cc(Cl)nc(OC(C)C)c3)nc3c2cnn3C)cc1` the same measures were 4.40, 4.33 and 5.63.
The corresponding values for `Cc1ccc(NC(=O)NNc2cc(-c3ccc(F)cc3)c3cnn(C)c3n2)cc1Nc1nccc(-c2cccnc2)n1` are 4.41, 4.48 and 5.22.
The corresponding values for `Cn1ncc2c(-c3ccc(F)cc3)cc(NNC(=O)Nc3cc(Cl)nc(OCCF)c3)nc21` are 4.43, 4.53 and 5.55.
As to `Cn1ncc2c(-c3ccccc3)cc(NNC(=O)Nc3cc(Cl)nc(Cl)c3)nc21`, the pEC50 with HCT-116 [1] was 5.20; with SW620/5-FU [3], 4.11. This molecule also had a pKd in assay [2] of 5.99.
For `CCCCOc1cc(NC(=O)NNc2cc(-c3ccc(F)cc3)c3cnn(C)c3n2)cc(Cl)n1`, the pEC50 was 4.31 in the assay with HCT-116 [1] and 4.53 in the assay with SW620/5-FU [3]. In assay [2], this molecule gave a pKd of 5.58.
As to `Cc1nn(C)c2nc(NNC(=O)Nc3cc(Cl)nc(Cl)c3)cc(C(C)C)c12`, the pEC50 with HCT-116 [1] is 4.74; in the assay on SW620/5-FU [3], 4.23. In addition, in assay [9], the Activity was 1.75 µM. The pKd in assay [2] was 5.71.
Turning to `Cc1nn(C)c2nc(NNC(=O)Nc3cc(Cl)nc(Cl)c3)cc(C3CC3)c12`, the pEC50 with HCT-116 [1] was 4.17; in the assay on SW620/5-FU [3], 4.09. The molecule also had a pKd in assay [2] of 5.44.
The corresponding values for `Cn1ncc2c(-c3ccc(F)cc3)cc(NNC(=O)N/C=C/c3cccnc3)nc21` are 4.44, 4.31 and 5.39.
For `COc1cc(NC(=O)NNc2cc(-c3ccc(F)cc3)c3cnn(C)c3n2)cc(OC)c1OC` the same measures were 4.34, 4.41 and 5.35.
Turning to `COc1ccc(-c2cc(NNC(=O)Nc3cc(Cl)nc(Cl)c3)nc3c2c(C)nn3C)cc1`, the pEC50 in the assay with HCT-116 [1] is 4.08; with SW620/5-FU [3], 5.01. Besides, the pKd in [2] is 5.99.
For `COc1ccc(-c2cc(NNC(=O)Nc3cc(Br)nc(Br)c3)nc3c2cnn3C)cc1` the same measures were 4.34, 4.27 and 5.20.
The corresponding values for `Cn1nc(C(F)(F)F)c2c(-c3ccccc3)cc(NNC(=O)Nc3cc(Cl)nc(Cl)c3)nc21` are 4.74, 4.88 and 6.03.
For `Cc1c(Cc2ccccc2)c(NNC(=O)Nc2cc(Cl)nc(Cl)c2)nc2c1cnn2C` the same measures were 4.87, 4.67 and 6.06.
As for `COc1ccc(-c2cc(NNC(=O)Nc3cc(Cl)nc(Cl)c3)nc3c2cnn3C)cc1`, the pEC50 in the assay on HCT-116 [1] is 4.91; in the assay on SW620/5-FU [3], 4.73. The molecule also had a pKd in assay [2] of 6.28.
Regarding `Cc1nn(C)c2nc(NNC(=O)Nc3cc(Cl)nc(Cl)c3)cc(-c3ccccc3)c12`, the results for the negative logarithm of the EC50 (pEC50) with HCT-116 [1] and with SW620/5-FU [3] were 4.10 and 4.64, respectively. In addition, in assay [2], the pKd was 5.27.
For `Cn1ncc2c(-c3ccc(F)cc3)cc(NNC(=O)Nc3cc(F)cc(F)c3)nc21` the same measures were 4.34, 4.32 and 5.40.
The corresponding values for `Cc1nn(C)c2nc(NNC(=O)Nc3cc(Cl)nc(Cl)c3)cc(-c3ccc(Cl)s3)c12` are 4.38, 4.53 and 5.70.

Source of the values: ChEMBL document CHEMBL5120746, “Novel 5-fluorouracil sensitizers for colorectal cancer therapy: Design and synthesis of S1P receptor 2 (S1PR2) antagonists” (Eur J Med Chem, 2022).
